Consider six molecules from patent US11524966B1 (Valo Early Discovery, Inc., priority 2017, dated 2022).

SMILES strings stand for the structures. Bounds are passed on as bounds.

This assay concerns the target T1, USP25 (USP25-His6, Boston Biochem E-546) (Homo sapiens, UniProt Q9UHP3).
T1 construct: His6; purchased Boston Biochem E-546
T1 sequence (Q9UHP3 1-1055): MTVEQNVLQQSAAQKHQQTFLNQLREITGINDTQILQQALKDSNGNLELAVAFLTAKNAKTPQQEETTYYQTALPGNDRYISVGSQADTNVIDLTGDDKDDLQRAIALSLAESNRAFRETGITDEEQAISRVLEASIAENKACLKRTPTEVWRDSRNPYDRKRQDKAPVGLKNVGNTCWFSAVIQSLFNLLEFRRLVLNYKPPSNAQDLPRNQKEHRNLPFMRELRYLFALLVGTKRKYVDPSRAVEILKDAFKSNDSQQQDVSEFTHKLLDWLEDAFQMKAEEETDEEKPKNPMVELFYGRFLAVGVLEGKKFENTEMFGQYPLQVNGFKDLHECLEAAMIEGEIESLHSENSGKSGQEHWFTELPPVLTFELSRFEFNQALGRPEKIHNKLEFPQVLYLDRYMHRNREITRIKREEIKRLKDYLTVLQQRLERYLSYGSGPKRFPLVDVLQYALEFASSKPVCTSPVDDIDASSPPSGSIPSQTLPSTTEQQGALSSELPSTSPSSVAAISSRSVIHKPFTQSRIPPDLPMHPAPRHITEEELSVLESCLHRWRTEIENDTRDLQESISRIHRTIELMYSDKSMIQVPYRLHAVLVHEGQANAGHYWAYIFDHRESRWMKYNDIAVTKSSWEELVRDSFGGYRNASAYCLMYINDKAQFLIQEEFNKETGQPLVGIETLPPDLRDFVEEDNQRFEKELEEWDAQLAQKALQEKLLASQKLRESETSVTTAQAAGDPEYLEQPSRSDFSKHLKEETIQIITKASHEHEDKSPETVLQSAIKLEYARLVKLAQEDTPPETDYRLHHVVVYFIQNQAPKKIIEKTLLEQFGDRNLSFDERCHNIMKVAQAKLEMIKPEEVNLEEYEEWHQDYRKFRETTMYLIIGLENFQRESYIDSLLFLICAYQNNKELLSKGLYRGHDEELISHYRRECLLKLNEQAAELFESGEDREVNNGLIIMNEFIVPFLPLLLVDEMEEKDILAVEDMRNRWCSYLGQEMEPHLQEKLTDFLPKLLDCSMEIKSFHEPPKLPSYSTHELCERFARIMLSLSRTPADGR
As to the kind of experiment: Ubiquitin-Rhodamine 110 Assay for USP25 Activity, Example A-2. It counts as biochemical. To be noted: Ubiquitin-Rhodamine 110 assay, Example A-2; read-out: USP25 A-2 IC50 range. In outline: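 75 pM USP25-His6 was preincubated 30 min with compound (10-point 3-fold series, 25 μM–1.3 nM) in pH 8.0 Tris buffer with BME, BGG and Triton X-100. Then 25 nM Ub-Rh110 (<<Km) was added for 45 min at room temperature, stopped with citric acid, fluorescence read at 485/535 nm, IC50 by 4-parameter fit.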
Regarding `Cc1ccc2c(N)c(C(=O)N[C@H]3COc4cc(N5CC6COCC(C5)C6(F)F)ccc4C3)sc2n1` [Example 5-4, 3-amino-N-((3R)-7-(9,9-difluoro-3-oxa-7-azabicyclo[3.3.1]nonan-7-yl)chroman-3-yl)-6-methylthieno[2,3-b]pyridine-2-carboxamide], the IC50 lay in the range of 0.05 to 0.2 µM.

On to `O=C(N[C@H]1COc2cc(N3CC4CCC(C3)N4)ccc2C1)c1cnc2c(c1)[C@@H]1C[C@@H]1CN2` [Example 3-15, (1aS,7bR)-N-((3R)-7-(3,8-diazabicyclo[3.2.l]octan-3-yl)chroman-3-yl)-1a,2,3,7b-tetrahydro-1H-cyclopropa[c][1,8]naphthyridine-6-carboxamide], for which the IC50 lay within 0.05 to 0.2 µM.

In the case of `Cc1ccc2c(N)c(C(=O)N[C@H]3COc4cc(N5C[C@H](N)CC56COC6)ccc4C3)sc2n1` (single isomer, unassigned) [Example 351], the IC50 lay within 0.001 to 0.05 µM.

Consider `Cc1ccc2c(N)c(C(=O)N[C@H]3CCc4nc(N5C[C@@H](N)[C@@]6(CCCO6)C5)ccc4C3)sc2n1` [Example 392, 3-amino-N-[(6S)-2-[(5R,9R)-9-amino-1-oxa-7-azaspiro[4.4]nonan-7-yl]-5,6,7,8-tetrahydroquinolin-6-yl]-6-methylthieno[2,3-b]pyridine-2-carboxamide], for which the IC50 is over 2 µM.

For `O=C(N[C@H]1COc2cc(N3CCNCC3)ccc2C1)c1ccc(NCc2ccccn2)nc1` [Example 470, (R)-N-(7-(piperazin-1-yl)chroman-3-yl)-6-((pyridin-2-ylmethyl)amino)nicotinamide], the IC50 is over 2 µM.

For the molecule `O=C(N[C@H]1COc2cc(N3CCNCC3)ccc2C1)c1ccc(NCc2cccnc2)nc1` [Example 468, (R)-N-(7-(piperazin-1-yl)chroman-3-yl)-6-((pyridin-3-ylmethyl)amino)nicotinamide], the IC50 was over 2 µM.
